From patent publication US7868181B2, “Compounds” (AstraZeneca AB, priority 2007, dated 2011)

Key:
[1] = target: T1, human VR1 (Homo sapiens, UniProt Q8NER1); assay: hVR1 FLIPR screening assay, IC50 determination (capsaicin); type: cell-based; settings: CHO cells stably expressing hVR1; agonist capsaicin
T1 construct: expressed in transfected cells; host or cells: CHO cells
Description: hVR1FLIPR (Fluorometric Image Plate Reader) Screening Assay
Transfected CHO cells, stably expressing hVR1 (15,000 cells/well) are seeded in 50 μL media in a black clear bottom 384 plate (Greiner) and grown in a humidified incubator (37° C., 2% CO2), 24-30 hours prior to experiment.
Subsequently, the media is removed from the cell plate by inversion and 2 μM Fluo-4 is added using a multidrop (Labsystems). Following the 40 min dye incubation in the dark at 37° C. and 2% CO2, the extracellular dye present is washed away using an EMBLA (Scatron), leaving the cells in 40 μL of assay buffer (1×HBSS, 10 mM D-Glucose, 1 mM CaCl2, 10 mM HEPES, 10×7.5% NaHCO3 and 2.5 mM Probenecid).
FLIPR Assay—IC50 Determination Protocol
For IC50 determinations the fluorescence is read using FLIPR filter 1 (em […]). A cellular baseline recording is taken for 30 seconds, followed by a 20 μL addition of 10, titrated half-log concentrations of the test compound, yielding cellular concentration ranging from 3 μM to 0.1 nM. Data is collected every 2 seconds for a further 5 min prior to the addition of a VR1 agonist solution: either 50 nM solution of capsaicin or MES (2-[N-morpholino] ethanesulfonic acid) buffer (pH 5.2), by the FLIPR pipettor. The FLIPR continues to collect data for a further 4 min. Compounds having antagonistic properties against the hVR1 will inhibit the increase in intracellular calcium in response to the capsaicin addition. This consequently leading to a reduction in fluorescence signal and providing a reduced fluorescence reading, compared with no compound, buffer controls. Data is exported by the FLIPR program as a sum of fluorescence calculated under the curve upon the addition of capsaicin. Maximum inhibition, Hill slope and IC50 data for each compound are generated.

[2] = target: T2, aldose reductase (Rattus norvegicus, UniProt P07943); assay: comparative aldose reductase activity determination (MDS Pharma Services); type: biochemical; settings: carried out by MDS Pharma Services
T2 construct: MDS Pharma Services - Taiwan Ltd (contract laboratory that ran the assay)
Description: A comparative aldose reductase activity determination was carried out by the company MDS Pharma Services—Taiwan Ltd; the results of that study is set forth in Table 1 below.

[3] = system: FCA-induced heat hyperalgesia; assay: Freund's Complete Adjuvant (FCA) model, heat plantar test (paw withdrawal latency); type: in vivo; settings: rat, oral
[4] = system: carrageenan-induced heat hyperalgesia; assay: Carrageenan model, heat plantar test (paw withdrawal latency); type: in vivo; settings: rat, oral
[5] = tested at Tmax, reversal of heat hyperalgesia

T1 sequence (Q8NER1 whole entry): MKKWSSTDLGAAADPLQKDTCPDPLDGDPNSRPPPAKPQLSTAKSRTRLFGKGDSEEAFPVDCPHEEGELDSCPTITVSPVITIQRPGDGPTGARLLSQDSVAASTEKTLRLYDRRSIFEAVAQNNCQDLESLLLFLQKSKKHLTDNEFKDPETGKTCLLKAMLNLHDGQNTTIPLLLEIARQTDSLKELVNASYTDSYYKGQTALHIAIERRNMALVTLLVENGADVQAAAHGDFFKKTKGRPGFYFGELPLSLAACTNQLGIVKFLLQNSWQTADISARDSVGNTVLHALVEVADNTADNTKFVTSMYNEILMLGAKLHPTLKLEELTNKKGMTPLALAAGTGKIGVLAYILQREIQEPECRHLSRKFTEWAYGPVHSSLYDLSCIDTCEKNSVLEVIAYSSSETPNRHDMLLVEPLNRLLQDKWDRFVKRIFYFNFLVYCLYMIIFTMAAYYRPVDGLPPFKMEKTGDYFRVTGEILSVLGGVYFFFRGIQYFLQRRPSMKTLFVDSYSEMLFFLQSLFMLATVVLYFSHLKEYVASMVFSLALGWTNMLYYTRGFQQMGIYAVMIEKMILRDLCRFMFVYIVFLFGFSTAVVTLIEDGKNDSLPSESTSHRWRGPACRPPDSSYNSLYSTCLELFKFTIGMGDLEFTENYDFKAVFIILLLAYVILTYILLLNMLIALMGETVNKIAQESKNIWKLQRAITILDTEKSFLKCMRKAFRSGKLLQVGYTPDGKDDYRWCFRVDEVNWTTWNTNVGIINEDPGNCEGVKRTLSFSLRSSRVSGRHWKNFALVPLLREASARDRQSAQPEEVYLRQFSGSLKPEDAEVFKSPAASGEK

| Structure (SMILES) | IC50 [1] | IC50 [2] | other results |
| --- | --- | --- | --- |
| O=C1NC(=O)[C@]2(N1)C(=O)N(C/C=C/c1ccc(Cl)c(Cl)c1)c1ccccc12 (single isomer, unassigned) [Enantiomer 1A] | 10 µM | 0.025 µM | – |
| O=C1NC(=O)[C@@]2(N1)C(=O)N(C/C=C/c1ccc(Cl)c(Cl)c1)c1ccccc12 (single isomer, unassigned) [Enantiomer 1B] | 0.043 µM | 0.758 µM | Extrapolated Emax ([3]; non-linear regression): >100%; EC80 ([3]; reversal of heat hyperalgesia): 100 µM; Emax observed ([3]; reversal of heat hyperalgesia): 100%; EC50 [3, 5]: 24 µM; ED50 [3, 5]: 52.8 µmol/kg; Extrapolated Emax ([4]; non-linear regression): 88%; EC80 ([4]; reversal of heat hyperalgesia): 10.7 µM; Emax observed ([4]; reversal of heat hyperalgesia): 76%; EC50 [4, 5]: 4.8 µM; ED50 [4, 5]: 10.6 µmol/kg |
| O=C1NC(=O)[C@]2(N1)C(=O)N(C/C=C/c1ccc(Cl)c(C(F)(F)F)c1)c1ccccc12 (single isomer, unassigned) [Enantiomer 2A] | 3.85 µM | 0.033 µM | – |
| O=C1NC(=O)[C@@]2(N1)C(=O)N(C/C=C/c1ccc(Cl)c(C(F)(F)F)c1)c1ccccc12 (single isomer, unassigned) [Enantiomer 2B] | 0.241 µM | 3.3 µM | – |
| O=C1NC(=O)[C@]2(N1)C(=O)N(CC#Cc1ccc(Cl)c(Cl)c1)c1ccccc12 (single isomer, unassigned) [Enantiomer 3A] | 15.5 µM | 0.0723 µM | – |
| O=C1NC(=O)[C@@]2(N1)C(=O)N(CC#Cc1ccc(Cl)c(Cl)c1)c1ccccc12 (single isomer, unassigned) [Enantiomer 3B] | 0.881 µM | 0.983 µM | – |
